The structures appear in SMILES notation.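 Cells were grown in 96-well plates and exposed to each compound for 48 hours at five concentrations; endpoints were interpolated linearly between bracketing concentrations, or set to the highest concentration if not reached. Here, GI50 denotes the concentration required for 50% inhibition of growth.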 Activity calls are given as the source filed them. Cut-off read from the data, not from the text of the source: active = GI50 up to about 1.1 µM and inactive = higher.

Assay in all cases: NCI tumour cell line growth inhibition, 48 h
Assay [1] concerns SK-OV-3.
Assay [2] relates to TK-10.
The subject of assay [3] is HT-29.
The subject of assay [4] is SF-268.
The subject of assay [5] is HCT-15.
The test system of assay [6] is HOP-62.
In assay [7] the test system is HOP-92.
Assay [8] has as its system OVCAR-4.
Assay [9] relates to MOLT-4.
In assay [10] the test system is SF-539.
The subject of assay [11] is Malme-3M.
Assay [12] has as its system OVCAR-5.
The subject of assay [13] is OVCAR-3.
Assay [14] deals with NCI/ADR-RES.
The test system of assay [15] is NCI-H522.
The test system of assay [16] is Hs-578T.
Assay [17] has as its system M14.
Assay [18] deals with HCC 2998.
The subject of assay [19] is SW-620.

Turning to `CC(Cc1ccc(O)c(O)c1)C(C)Cc1ccc(O)c(O)c1` (stereo not drawn) [NORDIHYDROGUAIARETIC ACID], the GI50 in assay [1] is 21.5 µM (inactive); in [2], 23.6 µM (inactive); in [3], 22.9 µM (inactive); in assay [4], 16.3 µM (inactive); in assay [5], over 38.9 µM; in assay [6], 17.1 µM (inactive). Besides, the GI50 in assay [7] is 3.14 µM (inactive); in assay [8], 14.4 µM (inactive); in assay [9], 8.22 µM (inactive); in assay [10], 17.5 µM (inactive); in assay [11], 15.9 µM (inactive); in assay [12], 21.2 µM (inactive). The GI50 in assay [13] is 13.7 µM (inactive); in assay [14], 22.8 µM (inactive); in assay [15] it was 2.03 µM (inactive); in assay [16] it was 16.9 µM (inactive); in [17], 16.5 µM (inactive); in [18] it was 19.1 µM (inactive). For the same molecule, the GI50 in assay [19] was 18.9 µM (inactive).
In the case of `CN1N=C(c2ccccc2)C(C(c2ccccc2[N+](=O)[O-])C2C(=O)N(C)N=C2c2ccccc2)C1=O` (stereo not drawn), the GI50 in assay [1] was > 100 µM (inactive); in [2], > 100 µM (inactive); in assay [3], > 68.7 µM (inactive); in assay [4] it was 97.7 µM (inactive); in assay [5], 42.6 µM; in assay [6], 93.1 µM (inactive). Besides, the GI50 in assay [7] is > 80.9 µM (inactive); in [8] it was > 100 µM (inactive); in assay [9], 37.6 µM (inactive); in [10] it was > 55.5 µM (inactive); in assay [11] it was > 100 µM (inactive); in [12] it was > 100 µM (inactive). Besides, the GI50 was 44.6 µM (inactive) in assay [13]; > 100 µM (inactive) in assay [14]; 99.8 µM (inactive) in assay [15]; > 73.1 µM (inactive) in [16]; > 100 µM (inactive) in assay [17]; 53 µM (inactive) in [18]. In addition, the GI50 in assay [19] is 99.3 µM (inactive).
As for `C=CC(Br)(CBr)CCC(Br)C(C)(C)Cl` (stereo not drawn), the GI50 in assay [1] is 16.3 µM (inactive); in [2], 2.72 µM (inactive); in assay [3], 1.53 µM (inactive); in assay [4] it was 2.02 µM (inactive); in assay [5], 2.58 µM; in [6], 3.78 µM (inactive). In addition, the GI50 in assay [7] was 2.04 µM (inactive); in assay [8] it was 4.08 µM (inactive); in assay [9], 0.555 µM (active); in assay [10], 1.99 µM (inactive); in assay [11], 6.27 µM (inactive); in [12], 7.11 µM (inactive). Besides, the GI50 in assay [13] is 2.23 µM (inactive); in assay [14], 3.92 µM (inactive); in [15], 1.38 µM (inactive); in [16], 3.4 µM (inactive); in [17], 5.14 µM (inactive); in assay [18], 6.22 µM (inactive). The GI50 in assay [19] was 2.05 µM (inactive).
Turning to `N=C(N)c1ccc(/N=N\c2c(O)c(C(=O)Nc3ccccc3)cc3ccccc23)cc1`, the GI50 was > 32.6 µM (inactive) in assay [1]; > 44.5 µM (inactive) in [2]; 18.4 µM (inactive) in [3]; 19.9 µM (inactive) in assay [4]; 18.1 µM in [5]; 14.5 µM (inactive) in assay [6]. For the same molecule, the GI50 was 16.4 µM (inactive) in assay [7]; 17.8 µM (inactive) in assay [8]; 2.58 µM (inactive) in [9]; 21 µM (inactive) in assay [10]; 32.1 µM (inactive) in assay [11]; 31.6 µM (inactive) in [12]. Moreover, the GI50 is 32.7 µM (inactive) in assay [13]; > 100 µM (inactive) in assay [14]; 10.1 µM (inactive) in assay [15]; 27.3 µM (inactive) in assay [16]; > 71.4 µM (inactive) in [17]; > 37.6 µM (inactive) in assay [18]. In addition, in assay [19], the GI50 was 15.6 µM (inactive).
With `CCCCCCCC(=O)N/N=C/c1ccc(Sc2nccn2C)c([N+](=O)[O-])c1`, the GI50 in assay [1] is 26.7 µM (inactive); in assay [2], 26.6 µM (inactive); in assay [3] it was 9.79 µM (inactive); in assay [4] it was 15.7 µM (inactive); in [5], 14.5 µM; in [6], 17.5 µM (inactive). Also, the GI50 was 3.33 µM (inactive) in assay [7]; 13.2 µM (inactive) in assay [8]; 11.4 µM (inactive) in assay [9]; 17 µM (inactive) in assay [10]; 14.4 µM (inactive) in [11]; 18.2 µM (inactive) in [12]. In addition, the GI50 in [13] is 15.6 µM (inactive); in assay [14], 17.7 µM (inactive); in assay [15], 12.2 µM (inactive); in assay [16], 18.5 µM (inactive); in assay [17], 13.2 µM (inactive); in assay [18], 13.4 µM (inactive). Further, the GI50 in assay [19] was 14.9 µM (inactive).
Turning to `N/C(=N\N=C\c1c[nH]c2ccccc12)Nc1ccccc1`, the GI50 in assay [1] is 0.418 µM (active); in assay [2], 1.28 µM (inactive); in assay [3], 0.191 µM (active); in [4] it was 0.573 µM (active); in assay [5], 0.318 µM; in assay [6], 0.308 µM (active). The GI50 is 0.392 µM (active) in assay [7]; 1.58 µM (inactive) in assay [8]; 0.938 µM (active) in [9]; 0.332 µM (active) in assay [10]; 0.215 µM (active) in [11]; 3.13 µM (inactive) in assay [12]. Moreover, the GI50 in assay [13] is 0.134 µM (active); in assay [14], 0.148 µM (active); in [15], 0.0596 µM (active); in assay [16], 0.14 µM (active); in assay [17], 0.11 µM (active); in assay [18] it was 0.594 µM (active). The GI50 in assay [19] is 0.122 µM (active).
For the molecule `Cc1cc(Nc2ccc(S(=O)(=O)O)cc2)c2ccccc2n1`, the GI50 in assay [1] was > 100 µM (inactive); in [2], > 100 µM (inactive); in [3], > 100 µM (inactive); in assay [4], > 100 µM (inactive); in assay [5], over 100 µM; in [6], 40.9 µM (inactive). Further, the GI50 in [7], in assay [8], in assay [9], in assay [10], in assay [11] and in [12] was > 100 µM (inactive) in each case. The GI50 in assay [13], in assay [14], in assay [15], in [16], in assay [17] and in assay [18] was > 100 µM (inactive) throughout. For the same molecule, the GI50 in assay [19] was > 100 µM (inactive).
As to `CC(CCC(=O)O)C(=O)O` (stereo not drawn), the GI50 in assay [1] is > 100 µM (inactive); in assay [2], > 100 µM (inactive); in [3] it was > 100 µM (inactive); in [4] it was > 100 µM (inactive); in assay [5], over 100 µM; in [6], > 100 µM (inactive). The GI50 in assay [7], in assay [8], in assay [9], in [10], in assay [11] and in assay [12] was > 100 µM (inactive) throughout. The GI50 in assay [13], in assay [14], in assay [15], in assay [16], in assay [17] and in assay [18] was > 100 µM (inactive) each time. Also, the GI50 in assay [19] was > 100 µM (inactive).
Consider `CCC12CN(C(=O)OC)C3C(Br)C1CCC(=O)C32` (stereo not drawn), for which the GI50 in [1] was > 100 µM (inactive); in assay [2], > 100 µM (inactive); in [3], > 100 µM (inactive); in assay [4], > 100 µM (inactive); in assay [5], over 100 µM; in [6], > 100 µM (inactive). Also, the GI50 in assay [7], in [8], in assay [9], in assay [10], in assay [11] and in assay [12] was > 100 µM (inactive) throughout. In addition, the GI50 is > 100 µM (inactive) in assay [13]; > 100 µM (inactive) in assay [14]; 84.1 µM (inactive) in [15]; > 100 µM (inactive) in assay [16]; > 100 µM (inactive) in assay [17]; > 100 µM (inactive) in [18]. Also, the GI50 in assay [19] was > 100 µM (inactive).
Turning to `C[C@]12Cc3cnc(-c4ccccc4)nc3C[C@@H]1CC[C@@H]1[C@@H]2CC[C@@]2(C)[C@H]1CC[C@]2(C)O`, the GI50 was 18 µM (inactive) in [1]; 23.2 µM (inactive) in [2]; 4.15 µM (inactive) in assay [3]; 12.9 µM (inactive) in [4]; 9.44 µM in assay [5]; 13.6 µM (inactive) in [6]. The GI50 in [7] was 22.8 µM (inactive); in assay [8], 14.4 µM (inactive); in assay [9], 34.3 µM (inactive); in [10] it was 1.33 µM (inactive); in assay [11] it was 18.9 µM (inactive); in [12], 14.3 µM (inactive). Also, the GI50 in assay [13] was 23.5 µM (inactive); in [14], 15.4 µM (inactive); in assay [15], 10.7 µM (inactive); in assay [16], 17.4 µM (inactive); in [17] it was 11.1 µM (inactive); in assay [18], 14.2 µM (inactive). The GI50 in assay [19] was 21.2 µM (inactive).
For the molecule `[O-][n+]1cc(SCc2ccccc2)ncc1SCc1ccccc1`, the GI50 in assay [1] was > 10 µM (inactive); in assay [2] it was > 10 µM (inactive); in assay [3] it was > 10 µM (inactive); in [4], > 10 µM (inactive); in assay [5] it was over 10 µM; in assay [6], > 10 µM (inactive). Further, the GI50 in assay [7], in assay [8], in assay [9], in assay [10], in assay [11] and in assay [12] was > 10 µM (inactive) in each case. The GI50 in assay [13], in assay [14], in assay [15], in [16], in assay [17] and in [18] was > 10 µM (inactive) throughout.

The values above are taken from ChEMBL document CHEMBL1201862, “PubChem BioAssay data set” (2004).
